Assays:
[1] = Moisture retention test (rate of decrease in water content of solution); assay type: physicochemical; conditions: 10 mass % in ion exchanged water; silica gel desiccator 25° C., RH 20%; vs water alone; FIG. 1
Protocol: In accordance with the following test method, the rate of decrease in water content of lauryl thiogalactoside (compound of Production Example 2) solution was calculated to evaluate moisture-retaining property.
0.5 g of a sample prepared by adjusting a concentration of lauryl thiogalactoside to 10 mass % with ion exchanged water was weighed in a container made of a resin to measure an initial weight (W0).
Next, the sample was left to stand still in a silica gel desiccator (RT; 25° C., RH; 20%) to measure a time-dependent weight (Wt) of the sample.
After the completion of the test, the sample was dried in a dryer (50° C.) for 2 hours and then left to stand still in a silica gel desiccator for 2 hours to measure a dry weight (Ws).
The same operation was conducted for a control sample prepared using water alone, and the rate of decrease in water content was calculated with the following equation.
Rate of decrease in water content (%)=Ht/H0×100(Ht=Wt−Ws, H0=W0−Ws)

photoaged skin = assay: Wrinkle reduction test on photoaged skin of hairless mice (UVA/UVB irradiation); assay type: in vivo; conditions: photoaged hairless mouse skin
Text: A wrinkle-reducing effect in the case of applying a sample containing a base alone or lauryl thiogalactoside (compound of Production Example 2) to photoaged skin was examined by the following test methods.
Ten hairless mice, which were 10 weeks old at the start of the test, were used for each group.
Photoaging was induced by irradiation with UVA and UVB once a day, five times a week for 8 weeks. An irradiation dose was increased every week from 20 J/cm^2 to 25 J/cm^2 and to 30 J/cm^2 for UVA, from 20 mJ/cm^2 to 30 mJ/cm^2 and to 40 mJ/cm^2 for UVB, and the maximum dose was irradiated in Week 3 or later.
A wrinkle-reducing effect was evaluated by a wrinkle score and an epidermal thickness. The wrinkle score was determined in accordance with the method of Bissett et al. (Photochem. Photobiol. 46: 367-378, 1987). In other words, the size and depth of wrinkles were comprehensively evaluated with naked eyes and scored with the following four grades: 3, “large and deep wrinkles can be confirmed”; 2, “wrinkles can be confirmed”; 1, “no wrinkles can be confirmed”; and 0, “normal skin texture can be observed”. […]
A sample containing lauryl thiogalactoside in an amount of 1% in a 50 vol % ethanol aqueous solution (base) was prepared (Example 1). […] Subsequently, after the completion of the application, the wrinkle score was determined. […]

Structure (SMILES): CCCCCCCCCCCCSC1OC(CO)C(O)C(O)C1O (stereo not shown) [lauryl thiogalactoside]
- Moisture-retaining property (rate of decrease in water content) [1]: did not suppress water volatilization in a dry state and exhibited an insufficient moisture-retaining action
- Effect on epidermal thickening (in words) (photoaged skin): had an effect of alleviating the epidermal thickening owing to photoaging
- Effect on wrinkles / wrinkle score (in words) (photoaged skin): effective for wrinkles induced by photoaging
- Result in an ordinary safety test (Ordinary safety test): does not have any problem in an ordinary safety test
